Laboratory results from publication PMC8305076, “Comprehensive Evaluation of Biological Effects of Pentathiepins on Various Human Cancer Cell Lines and Insights into Their Mode of Action” (International Journal of Molecular Sciences, 2021).

Tests used:
seven cancer cell lines = test: cell cycle analysis (summary); assay type: cell-based, human; design: key: no impact (0); weak impact (+); strong impact (++); details: summary grade
Method: (§1) The potent cytotoxicity and the potential to inhibit the proliferation of cancer cells accompanied by DNA damage effects raised the question as to whether cell cycle progression might be affected as a result of treatment with pentathiepins.
(§2) Cells were harvested by trypsinization, collected in 1.5 mL tubes, and washed twice with PBS by centrifuging for 5 min at 500× g and discarding the supernatant after every step. For fixation, 500 µL of ice-cold ethanol (70%) was added dropwise under vortexing with a subsequent incubation on ice for 30 min. Then, the cells were centrifuged for 10 min at 4000 rpm and 4 °C, the supernatant was removed, and the cells were resuspended in 500 µL of PBS containing 25 µg/mL of PI and 100 µg/mL of RNase. The staining solution was incubated for 30 min, and the cell suspension was measured at λEx/Em = 488/655–730 nm using a MACSquant Analyzer 10 (Miltenyi Biotec, Teterow, Germany).

HAP-1 [1] = test: cell cycle analysis (PI staining); assay type: cell-based, human; details: IC90, 24 h
Method: as §1, §2

HAP-1.KO.GPx1 [2] = test: cell cycle analysis (PI staining); assay type: cell-based, human; details: IC90, 24 h
Method: as §1, §2

DanG [3] = test: cell cycle analysis (PI staining); assay type: cell-based, human; details: IC90, 24 and 48 h (Figure 19a)
Method: as §1, §2

RT-112 = test: crystal violet proliferation assay; assay type: cell-based; details: Homo sapiens, 96 h, normoxia, read-out: GI50 CV mean
Method: (§3) Distinct MTT cell viability and crystal violet cell proliferation assays were performed to assess the cytotoxicity of the compounds 1–6 on 14 human cancer cell lines. In the viability assay, cells with intact mitochondria and thus active dehydrogenases are competent to convert MTT to the corresponding insoluble formazan. The formazan can be photometrically detected after solubilization and allows for indirect conclusions about the viability of the cells as an IC50 value. In the crystal violet assay, cells are stained by the binding of the dye to the chromatin, thus allowing for a quantification of biomass that remains adherent after a treatment in comparison with a control after a specific time. Potency is defined as the growth inhibitory concentration 50% (GI50).
(§4) The antiproliferative effect of the pentathiepins on human cancer cell lines was analyzed by crystal violet assay based on the protocol of a previous publication. […] After dissolving in ethanol, the optical density was measured. Here, 1000 cells (250 for LCLC-103H) in 0.1 mL of medium were seeded per well of a 96 well plate and incubated at standard conditions for 24 h prior to treatment to allow for adhesion of the cells. A serial dilution of the test compounds was prepared in medium, covering final concentrations from 10.0 to 0.04 µM and 0.1 mL of the working solution added to each well in triplicate. Additionally, samples for each cell line were seeded and directly fixed after 24 h to measure the cell density at the beginning of treatment (t0). Fixation was performed by replacing medium with 0.1 mL of a solution containing 1% glutaraldehyde in Dulbecco’s buffer (0.2 g/L KCl, 0.1 g/L MgSO4·7 H2O, 1.55 g/L Na2HPO4·7 H2O, 0.2 g/L KH2HPO4, and 8 g/L NaCl in water) for 20 min. Plates were stored in 0.1 mL of Dulbecco’s buffer until further processing. After 96 h of treatment, the same fixation process was applied to the plates containing cells and test compounds. To stain the cells, 0.1 mL of an aqueous solution of crystal violet (0.02%) was added per well for 20 min, then discarded and the plates afterwards rinsed in clear water for 30 min. The dye was extracted in 50 µL of ethanol per well during 2 h of shaking. The plates were read at λ = 570 nm using a SpectraMax 384plus (Molecular Devices, Sunnyvale, CA, USA), and the proliferation of the treatment conditions was calculated in relation to a solvent control sample after subtracting the background value of the T0-plates. The GI50 (half-maximal growth inhibitory concentration) was calculated via nonlinear regression followed by interpolation of the dose–response graphs in Prism 7 (GraphPad, San Diego, CA, USA).

PATU-8902 = test: crystal violet proliferation assay; assay type: cell-based; details: Homo sapiens, 96 h, normoxia, read-out: GI50 CV mean
Method: as §3, §4

HAP-1 [4] = test: crystal violet proliferation assay; assay type: cell-based; details: Homo sapiens, HAP1, 96 h, normoxia, read-out: GI50 CV mean
Method: as §3, §4

A2780cis = test: crystal violet proliferation assay; assay type: cell-based; details: Homo sapiens, 96 h, normoxia, read-out: GI50 CV mean
Method: as §3, §4

LCLC-103H = test: crystal violet proliferation assay; assay type: cell-based; details: Homo sapiens, 96 h, normoxia, read-out: GI50 CV mean
Method: as §3, §4

Kyse-70 = test: crystal violet proliferation assay; assay type: cell-based; details: Homo sapiens, 96 h, normoxia, read-out: GI50 CV mean
Method: as §3, §4

Siso = test: crystal violet proliferation assay; assay type: cell-based; details: Homo sapiens, 96 h, normoxia, read-out: GI50 CV mean
Method: as §3, §4

HAP-1.KO.GPx1 [5] = test: crystal violet proliferation assay; assay type: cell-based; details: Homo sapiens, 96 h, normoxia, read-out: GI50 CV mean
Method: as §3, §4

DanG [6] = test: crystal violet proliferation assay; assay type: cell-based; details: Homo sapiens, 96 h, normoxia, read-out: GI50 CV mean
Method: as §3, §4

A2780 = test: crystal violet proliferation assay; assay type: cell-based; details: Homo sapiens, 96 h, normoxia, read-out: GI50 CV mean
Method: as §3, §4

RT-4 = test: crystal violet proliferation assay; assay type: cell-based; details: Homo sapiens, 96 h, normoxia, read-out: GI50 CV mean
Method: as §3, §4

YAPC = test: crystal violet proliferation assay; assay type: cell-based; details: Homo sapiens, 96 h, normoxia, read-out: GI50 CV mean
Method: as §3, §4

A-427 = test: crystal violet proliferation assay; assay type: cell-based; details: Homo sapiens, 96 h, normoxia, read-out: GI50 CV mean
Method: as §3, §4

Compound | G0/G1 arrest (seven cancer cell lines) | G2/M arrest (seven cancer cell lines) | increase of cells in G2/M-phase (HAP-1 [1]) | increase of cells in sub G1-phase (HAP-1 [1]) | increase of cells in G2/M-phase (HAP-1.KO.GPx1 [2]) | increase of cells in sub G1-phase (HAP-1.KO.GPx1 [2]) | decrease of G0/G1-phase cells (DanG [3]) | GI50 (RT-112) [µM] | GI50 (PATU-8902) [µM] | GI50 (HAP-1 [4]) [µM] | GI50 (A2780cis) [µM] | GI50 (LCLC-103H) [µM] | GI50 (Kyse-70) [µM] | GI50 (Siso) [µM] | GI50 (HAP-1.KO.GPx1 [5]) [µM] | GI50 (DanG [6]) [µM] | GI50 (A2780) [µM] | GI50 (RT-4) [µM] | GI50 (YAPC) [µM] | GI50 (A-427) [µM] | further results
CCOc1c2c(c3ccc(C(=O)N4CCN(C(=O)c5ccc(F)cc5)CC4)cn13)SSSSS2 [Compound 5, (6-Ethoxy-[1,2,3,4,5]pentathiepino[6,7-a]indolizin-9-yl)(4-(4-fluorobenzoyl)piperazinyl)methanone] | 0 | + | ≤ 30% | up to 10% | ≤ 30% | up to 10% | roughly 15% | 0.384 | 0.34 | 0.12 | 0.142 | 0.232 | 0.181 | 0.369 | 0.144 | 0.398 | 0.092 | 0.358 | 0.411 | 0.32 | increase of cells in G2/M-phase (DanG [3]): 6%; increase of cells in sub G1-phase (DanG [3]): 8%
CCOc1c2c(c3ccc(C(=O)N4CCCCC4)cn13)SSSSS2 [Compound 2, (6-Ethoxy-[1,2,3,4,5]pentathiepino[6,7-a]indolizin-9-yl)(piperidinyl)methanone] | 0 | + | ≤ 30% | up to 10% | ≤ 30% | up to 10% | roughly 15% | 0.559 | 0.659 | 0.161 | 0.234 | 0.552 | 0.409 | 0.423 | 0.173 | 0.644 | 0.164 | 1.52 | 0.628 | 0.401 | increase of cells in G2/M-phase (DanG [3]): 6%; increase of cells in sub G1-phase (DanG [3]): 8%
CCOc1c2c(c3ccc(C(=O)N4CCOCC4)cn13)SSSSS2 [Compound 3, (6-Ethoxy-[1,2,3,4,5]pentathiepino[6,7-a]indolizin-9-yl)(morpholino)methanone] | 0 | + | ≤ 30% | up to 10% | ≤ 30% | up to 10% | roughly 15% | 0.246 | 0.257 | 0.064 | 0.088 | 0.128 | 0.142 | 0.166 | 0.068 | 0.382 | 0.055 | 0.193 | 0.35 | 0.142 | increase of cells in G2/M-phase (DanG [3]): 6%; increase of cells in sub G1-phase (DanG [3]): 8%
CCOc1c2c(c3ccc(C(=O)N(CC)CC)cn13)SSSSS2 [Compound 4, 6-Ethoxy-N,N’-diethyl-[1,2,3,4,5]pentathiepino[6,7-a]indolizine-9-carboxamide] | 0 | + | ≤ 30% | up to 10% | ≤ 30% | up to 10% | roughly 15% | 0.469 | 0.471 | 0.084 | 0.173 | 0.306 | 0.284 | 0.381 | 0.116 | 0.459 | 0.106 | 0.445 | 0.608 | 0.31 | increase of cells in G2/M-phase (DanG [3]): 6%; increase of cells in sub G1-phase (DanG [3]): 8%
CCOc1c2c(c3cnc4[nH]c(-c5ccc(OC)cc5)cc4n13)SSSSS2 [Compound 1, 11-Ethoxy-2-(4-methoxyphenyl)-3H-[1,2,3,4,5]pentathiepino[6′,7′:3,4]pyrrolo[1,2-a]pyrrolo[2,3-e]pyrazine] | + | 0 | No such effects were detected |  | No such effects were detected |  |  | 0.465 | 0.48 | 0.339 | 0.228 | 0.441 | 0.264 | 0.256 | 0.313 | 0.34 | 0.236 | 0.373 | 0.405 | 0.306 | cell cycle distribution vs control (DanG [3]): caused no differences from a normal cell cycle
CCOc1c2c(c3ccc(C(=O)N4CCN(S(=O)(=O)c5ccc(C)cc5)CC4)cn13)SSSSS2 [Compound 6, (6-Ethoxy-[1,2,3,4,5]pentathiepino[6,7-a]indolizin-9-yl)(4-tosylpiperazinyl)methanone] | + | 0 | No such effects were detected |  | No such effects were detected |  |  | 1.1 | 0.952 | 0.507 | 0.512 | 0.646 | 0.481 | 0.597 | 0.524 | 0.711 | 0.538 | 0.835 | 1.17 | 0.352 | cell cycle distribution vs control (DanG [3]): caused no differences from a normal cell cycle
